Results reported in patent publication US20240101685A1, “NEAR INFRARED PHOTOIMMUNOTHERAPY (NIR-PIT) COMBINATION THERAPY TO TREAT CANCER” (THE UNITED STATES OF AMERICA, as represented by the …, priority 2021, published 2024).

Legend:
[1] = IR700 at 689 nm; Photofrin 630 nm; Foscan 652 nm; NPe6/Laserphyrin 654 nm; cited from earlier work
[2] = system: MC38-luc tumor; assay: In vivo efficacy of L-NaAA alone; set-up: species or system mice
Source text: (C) Luciferase activity calculated from BLI (n=10, mean±SEM; repeated measures two-way ANOVA followed by Tukey's test; N.S., not significant).

[3] = system: LL/2-luc tumors; assay: CD44-targeted NIR-PIT with or without L-NaAA; format: in vivo, C57BL/6 mice
Source text: (§1) The images were taken pre- and post-NIR-PIT. ROIs were placed on the tumor. […] ROIs were placed over the entire tumor.

[4] = system: A431 GFP-luc tumor; assay: Panitumumab NIR-PIT with or without L-NaAA; format: in vivo, athymic mice; details: with L-NaAA
Source text: as §1

[5] = system: MC38-luc tumors
Description: ROIs were placed over the entire tumor. […] (A) Treatment schedule.
as §1
Scout images were obtained to accurately locate the tumor.
Single-cell suspensions from tumor samples were pre-pared using following protocol. Whole tumors were incubated in the RPMI 1640 medium (Thermo Fisher Scientific) containing collagenase type IV (1 mg mL^−1; Thermo Fisher Scientific) and DNase I (20 μg mL^−1; Millipore Sigma, Burlington, MA) in 37° C. for 30 minutes, then gently cut with scissors and mashed with the back of the plunger of 3 mL syringe. The tissues were passed through a 70 μm cell strainer (Corning, Corning, NY). A total of 3.0×10^6 cells was stained and data for 5.0×10^5 cells were collected for each tumor. The cells were stained with anti-CTLA4 antibody (Clone; UC10-4B9) from Thermo Fisher Scientific. To distinguish live cells from dead cells, cells were also stained with LIVE/DEAD Fixable Dead Cell Stain (Thermo Fisher Scientific). The fluorescence of the cells was then analyzed with the flow cytometer (FACSLyric, BD Biosciences) and FlowJo software (FlowJo LLC). Dead cells were removed from analysis based on FSC, SSC, and staining with LIVE/DEAD Fixable Dead Cell Stain.

[6] = system: MC38-luc tumors; assay: CD44-targeted NIR-PIT with or without L-NaAA
Description: Photon counts were evaluated with the Photon Imager (Biospace Lab) using relative light units. ROIs were placed over the entire tumor. The counts per minute of relative light units were calculated using M3 Vision Software (Biospace Lab) and converted to the percentage based on those before NIR-PIT using the following formula: [(relative light units after treatment)/(relative light units before treatment)×100(%)]. Chemiluminescent images were continually recorded 1 and 3 hours after NIR-PIT.
(§2) The APC was injected 6 days after inoculation of cancer cells into C57BL/6 mice. […] NIR light (690 nm, 150 mW cm-2, 50 J cm-2) was exposed on the next day. […] Upon NIR light exposure, the normal tissue adjacent to the tumor was covered with aluminum foil to ensure that the NIR light exposure is limited in tumor site. Dorsal fluorescence images of IR700 were obtained with the 700 nm fluorescence channel of the Pearl Imager (LI-COR Biosciences). The images were taken pre- and post-NIR-PIT. ROIs were placed on the tumor. The dorsal edema formation of treated mouse 1 day after NIR light irradiation was imaged by a camera. Acute treatment efficacy was evaluated with BLI analysis, in which, D-luciferin (3 mg mouse-1; Gold Biotechnology) was intraperitoneally injected into mice. Luciferase activity was analyzed with a BLI system (Biospace Lab) using relative light units. ROIs were placed over the entire tumor. The counts per minute of relative light units were calculated using M3 Vision Software (Biospace Lab) and converted to the percentage based on those before NIR-PIT using the following formula: [(relative light units after treatment)/(relative light units before treatment)×100(%)]. Bioluminescence im-ages were continually recorded until the onset of depilation-induced skin pigmentation precluded accurate measurement.
Under pentobarbital anesthesia, MRI was performed on a 3-T scanner using an in-house 10-inch circle shaped mouse receiver coil array (Elition 3T; Philips Medical Systems, Best, Nether-lands) 1 day after NIR light exposure. Scout images were obtained to accurately locate the tumor. All mice underwent T2-weighted fat-saturation imaging (T2WI fat-sat) and short-TI inversion recovery imaging (STIR). All images were obtained in the coronal plane and T2WI fat-sat images were also obtained in the axial plane. All images were analyzed using Image J software, and 3D imaging were recon-structed. The high signal intensity area derived from each image in T2WI fat-sat and STIR was calculated by Image J.

[7] = system: MOC2-luc tumors; assay: CD44-targeted NIR-PIT with or without L-NaAA
Description: as §2

[8] = system: MDAMB468 GFP-luc cells; assay: In vitro NIR-PIT with reducing agents, PI staining; details: 10 mM NaN3
Description: (§3) A431 GFP-luc or MDAMB468 GFP-luc cells (4×10^5) were seeded into 12-well plates, and incubated for 24 hours, and then exposed to media containing panitumumab-IR700 (10 μg mL^−1) for 1 hour at 37° C. […] NIR light (690 nm, 150 mW cm^−2, 1 or 2 J cm^−2 for A431 GFP-luc, 20 J cm^−2 for MDAMB468 GFP-luc) was irradiated to cancer cells. For flow cytometric analyses, the cells were collected with trypsin one hour after NIR light exposure. Cells were then stained with propidium iodide (PI, 1 μg mL^−1) at RT for 5 minutes. The fluorescence of the cells was then analyzed with a flow cytometer (FACSCalibur, BD Biosciences, San Jose, CA, USA) and FlowJo software (BD Biosciences).

[9] = system: A431 GFP-luc cells; assay: In vitro NIR-PIT with reducing agents, PI staining; details: for cytotoxicity of Pan-PIT in the presence of NaN3: 10 mM NaN3
Description: as §3

[10] = IR700 with L-cysteine, NaN3 added
[11] = Description: Before and after each irradiation, the 700 nm fluorescence intensity was acquired by a fluorescence imager (Pearl Imager, LI-COR Bioscience, Lincoln, NE, USA). Pearl Cam Software (LI-COR Biosciences) was used for analyzing fluorescence. The same regions of interest (ROIs) were put on the solution in each tube, and then mean 700 nm fluorescence intensity was measured. The appearance of the tube before and after NIR light irradiation was imaged. All the experiments were carried out at RT.
[12] = system: LL2-luc tumor; details: IL15 1 ug i.p. preconditioning + anti-PD-L1-IR700 + NIR light 50 J/cm2
Description: Tumors were established in mice by administration of 5×10^5 LL2 cells s.c. Four days later, IL15 (1 ug i.p.) was administered, followed one day later with anti-PD-L1-IR700 (or vehicle control), followed with or without NIR light (50 J/cm2) another day later.

[13] = dose of 3 mg/kg for melanoma therapy; cited from earlier work
[14] = system: mEERL-hEGFR cells; assay: In vitro NIR-PIT, PI staining and MTT assay; format: cell-based, murine
Description: After washing with PBS, phenol-red-free RPMI 1640 medium was added. NIR light (690 nm) was irradiated to cancer cells with an ML7710 laser system (Modulight, Tampere, Finland) at a power density of 150 mW/cm^2. One hour after NIR-PIT, the cells were collected with trypsin, and stained with propidium iodide (PI, 1 μg/mL) at room temperature for 5 minutes, and then assessed for PI positivity on a BD FACSCalibur (BD Biosciences) using CellQuest software (BD Biosciences) using FlowJo software (FlowJo LLC). To assess cell viability, cell proliferation was evaluated by 3-(4,5-Dimethyl-2-thiazolyl)-2,5-diphenyl-2H-tetrazolium bromide (MTT) assay. Cells were incubated and treated, as described above. One hour after NIR-PIT, the medium was removed and 500 μl of MTT reagent (SIGMA Aldrich; 0.5 mg/ml) was added to each well. After 1 hour incubation, the supernatant was removed and 500 μL of 2-propanol was added to each well to dissolve the crystal formazan dye. After transferring 100 μL of the supernatant to 96 well plate each, absorbance was measured at 570 nm on a microplate reader (Synergy™ H1). For relative quantification, the value of absorbance in each group was normalized to that in the control group.

[15] = system: mEERL-hEGFR tumors; assay: Histologic analysis (H-E staining) 1 hour after NIR-PIT; format: in vivo, C57BL/6 mice; details: tumors harvested 1 hour after light exposure
Source text: Tumors from mEERL-hEGFR, MC38-luc, and LLC tumors were harvested, formalin-fixed and paraffin-embedded, and sectioned at […]. Following standard hematoxylin and eosin (HE) staining, bright-light photomicrographs were obtained using Mantra Quantitative Pathology Workstation (PerkinElmer).

[16] = system: mEERL-hEGFR tumors; set-up: tumor volume: dose or concentration left out as unconfirmed
Description: The lower part of the body of the mice was shaved before NIR light irradiation and image analysis. Tumors were established via subcutaneous injection of 1×10^6 cells in the right or both side of dorsal flank for each model. Mice with tumors reaching approximately 50-100 mm^3 in volume were used for the experiments. Mice were monitored each day, and tumor volume (tumor volume=length×width^2×0.5) was measured twice a week until the tumor volume reached 2,000 mm^3, whereupon the mice were euthanized with inhalation of carbon dioxide gas. In a bilateral model, the mice were euthanized when either tumor reached its humane endpoint. Tumor disappearance for 4 weeks or longer after treatment was defined as complete remission.
The mixed antibody/APC was injected 6 days after inoculation of cancer cells into C57BL/6 mice. Twenty-four hours after administration, NIR light (690 nm, 150 mW/cm^2) was irradiated to tumors at 50 J/cm^2 in all groups. The surface of the mouse other than the tumor was covered with aluminum foil. […] In the bilateral model, NIR light (690 nm, 150 mW/cm^2) was given only to right-sided tumors at 50 J/cm^2 and the remainder of the mouse (including the left-sided tumor) was covered with aluminum foil during irradiation.

[17] = CD44-targeted NIR-PIT with L-NaAA
[18] = with or without L-NaAA injection
[19] = 1 day after CD44-targeted NIR-PIT

Oc1cccc(-c2c3nc(c(-c4cccc(O)c4)c4ccc([nH]4)c(-c4cccc(O)c4)c4nc(c(-c5cccc(O)c5)c5ccc2[nH]5)CC4)C=C3)c1 [Foscan®, meta-tetrahydroxyphenylchlorin]
extinction coefficient [1]: 22000 M⁻¹ cm⁻¹

O=C1O[C@H]([C@@H](O)CO)C([O-])=C1O.[Na+] [L-NaAA, L-sodium ascorbate]
tumor growth (BLI) [2]: not to affect tumor growth | body weight [3, 17]: no significant difference in body weight was detected | antitumor effects of CD44-targeted NIR-PIT (BLI) ([3]; with L-NaAA): not changed | edema formation 1 day after NIR-PIT [3, 18]: no edema was detected | efficacy of pan-PIT (BLI) [4]: did not affect the efficacy of pan-PIT | edema formation ([5]; 1 day after CTLA4-targeted NIR-PIT): suppressed both macroscopically and by MRI | BLI intensity by day 6 post NIR-PIT ([5]; CTLA4-IR700 50 μg, NIR 50 J cm-2, L-NaAA 80 mg mouse-1 i.p.): no difference was observed between the two groups | ROS ([5]; CTLA4-targeted NIR-PIT with vs without L-NaAA): higher ROS was also detected in the NIR-PIT without L-NaAA group | body weight the day after NIR-PIT ([5]; NIR-PIT with L-NaAA group): significant lower weight | CTLA4hi cells among total live cells ([5]; three hours after CTLA4-targeted NIR-PIT): selectively depleted in both NIR-PIT with and without L-NaAA groups | edema on T2WI fat-sat MRI [6, 19]: minimal edema was observed just around the treated tumors | high signal intensity area on T2WI fat-sat images [6, 19]: significantly larger in the group treated without L-NaAA | ROS (chemiluminescence imaging with L-012) ([6]; CD44-targeted NIR-PIT with vs without L-NaAA): significantly lower intensity (lower ROS) on CLI | body weight ([6]; NIR-PIT with vs without L-NaAA): No significant difference in body weight | edema formation 1 day after NIR-PIT [6, 18]: no edema was detected | body weight [7, 17]: no significant difference in body weight was detected | antitumor effects of CD44-targeted NIR-PIT (BLI) ([7]; with L-NaAA): not changed | edema formation 1 day after NIR-PIT [7, 18]: no edema was detected | cytotoxicity of Pan-PIT in the presence of NaN3 [8]: restored cytotoxicity of Pan-PIT suppressed by NaN3

N[C@@H](CS)C(=O)O [L-cysteine]
cytotoxicity of Pan-PIT in the presence of NaN3 [9]: could not reverse the effects of NaN3 | cytotoxic damage of Pan-PIT, low concentration of reducing agent ([9]; L-NaAA low or pharmacological concentrations, L-cysteine 0.001 mM): slightly enhanced the cytotoxic damage | cytotoxic damage of Pan-PIT, high concentration of reducing agent ([9]; L-NaAA over 1 mM, L-cysteine 0.1 mM or higher): compromised the cytotoxicity

C=Cc1c(C)c2cc3nc(c(CC(=O)N[C@@H](CC(=O)[O-])C(=O)[O-])c4[nH]c(cc5nc(cc1[nH]2)C(C)=C5CC)c(C)c4C(=O)[O-])[C@@H](CCC(=O)[O-])[C@@H]3C.[Na+].[Na+].[Na+].[Na+] [NPe6/Laserphyrin®, mono-L-aspartylchlorin e6]
extinction coefficient [1]: 40000 M⁻¹ cm⁻¹

[N-]=[N+]=[N-] [NaN3, Sodium azide, reference compound]
ligand cleavage (remaining IR700) [10]: ligand cleavage decreased | cytotoxicity of Pan-PIT in the presence of NaN3 [9]: suppression of NIR-PIT cytotoxicity

C[Si](C)(CCC[N+](CCCS(=O)(=O)O)(CCCS(=O)(=O)O)CCCS(=O)(=O)O)O[Si]1(O[Si](C)(C)CCC[N+](CCCS(=O)(=O)O)(CCCS(=O)(=O)O)CCCS(=O)(=O)O)n2c3c4ccccc4c2N=C2N=C(N=c4c5ccccc5c(n41)=NC1=NC(=N3)c3ccccc31)c1ccccc12 [Pc 3, Bis{3-[Tris(3-Sulfopropyl)]Ammoniopropyldimethylsilvloxide} Silicon Phthalocyanine]
solubility of Pc 3 after light exposure [11]: dramatically changed its solubility

IL-15: immunoactivator interleukin
survival [12]: increased survival | tumor volume [12]: substantially reduced tumor volume

Ipilimumab: anti-CTLA4 antibody
patients with gastrointestinal symptoms (irAE) [13]: about 40%

Photofrin®
extinction coefficient [1]: 1200 M⁻¹ cm⁻¹

pan-IR700
cancer cell death (incorporation of propidium iodine and MTT assay) ([14]; APC 10 μg/mL 1 h, NIR light 690 nm, read 1 h after NIR-PIT): cancer cell death was induced by NIR-PIT in an NIR light-dose dependent manner | cell viability, APC alone ([14]; without NIR light): Neither NIR light alone nor panitumumab IR700 alone induced significant alterations in cell viability

panitumumab NIR-PIT
histologic change of tumor cells (H-E staining) [15]: swelling and vacuolation of the tumor cell | tumor volume ([16]; mixed antibody/APC i.v., NIR light 50 J/cm^2 once 1 day later): not significantly decreased | mice in which the tumor was cleared ([16]; n=12-13): 1/12
